Consider 5 compounds from PubChem BioAssay (NCI).

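These data come from cells grown in 96-well plates and exposed to compound for 48 hours at five concentrations. The concentration for 50% growth inhibition is given as GI50. At the TGI there is no net growth.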

Some test systems named below: EKVX NSCLC; HS 578T breast; M14 melanoma; NCI/ADR-RES ovarian; OVCAR-5 ovarian; OVCAR-8 ovarian; RXF 393 renal; SR leukemia; SW-620 colon; UACC-257 melanoma.
Experiment in all cases: growth of human tumour cells (NCI), 48 h

Turning to `CN(c1ccc(NC(=O)Nc2c(Cl)cccc2Cl)cc1)c1ccnc(Nc2cccc(CS(C)(=O)=O)c2)n1`, the GI50 is 6.31 µM with EKVX NSCLC; 4.35 µM in the test with HS 578T breast; 2.64 µM in the test on M14 melanoma; 5.49 µM in the test with NCI/ADR-RES ovarian; 6.2 µM in the test with OVCAR-5 ovarian; 2.31 µM in the test with OVCAR-8 ovarian. In addition, the GI50 in the test on RXF 393 renal is 2.23 µM; in the test on SR leukemia it was 0.303 µM; in the test with SW-620 colon, 1.62 µM; with UACC-257 melanoma it was 1.94 µM. The TGI with EKVX NSCLC is greater than 25 µM; in the test with HS 578T breast, greater than 17.6 µM; in the test with M14 melanoma, 11.6 µM; with NCI/ADR-RES ovarian it was greater than 25 µM; in the test on OVCAR-5 ovarian it was greater than 19.5 µM; in the test on OVCAR-8 ovarian, 6.82 µM. The TGI was 8.08 µM with RXF 393 renal, greater than 25 µM in the test with SR leukemia, greater than 16.8 µM in the test with SW-620 colon and 6.55 µM with UACC-257 melanoma.
`CC1(C)N=C(N)N=C(N)N1c1ccc(CCC(=O)Nc2ccc(S(=O)(=O)F)cc2)c(Cl)c1`: the GI50 was 2.78 µM in the test on EKVX NSCLC; greater than 84.7 µM with HS 578T breast; 0.762 µM in the test on M14 melanoma; greater than 100 µM with NCI/ADR-RES ovarian; 2.4 µM in the test with OVCAR-5 ovarian; 4.66 µM with OVCAR-8 ovarian. For the same compound, the GI50 is greater than 45.4 µM with RXF 393 renal, 0.179 µM with SR leukemia, 0.144 µM with SW-620 colon and greater than 42.5 µM with UACC-257 melanoma. Also, the TGI in the test on EKVX NSCLC, in the test on HS 578T breast, in the test with M14 melanoma, in the test with NCI/ADR-RES ovarian, in the test on OVCAR-5 ovarian and with OVCAR-8 ovarian was greater than 100 µM each time. The TGI in the test on RXF 393 renal, in the test on SR leukemia, in the test with SW-620 colon and in the test on UACC-257 melanoma was greater than 100 µM each time.
With `O=C(/C=C/c1ccccc1)Nc1ncc(Cc2ccccc2Cl)s1`, the GI50 was 0.571 µM in the test with EKVX NSCLC; 0.302 µM in the test on HS 578T breast; 0.236 µM in the test with M14 melanoma; 0.325 µM with NCI/ADR-RES ovarian; 0.511 µM in the test with OVCAR-5 ovarian; 0.509 µM in the test on OVCAR-8 ovarian. For the same compound, the GI50 with RXF 393 renal is 0.223 µM; in the test on SR leukemia, 0.153 µM; with SW-620 colon, 0.413 µM; in the test on UACC-257 melanoma it was greater than 100 µM. In addition, the TGI with EKVX NSCLC was greater than 100 µM; in the test with HS 578T breast, greater than 24.7 µM; in the test on M14 melanoma it was greater than 100 µM; in the test with NCI/ADR-RES ovarian, greater than 100 µM; with OVCAR-5 ovarian it was greater than 100 µM; with OVCAR-8 ovarian, greater than 100 µM. Besides, the TGI in the test with RXF 393 renal was 0.73 µM; in the test on SR leukemia, greater than 100 µM; with SW-620 colon, greater than 100 µM; in the test with UACC-257 melanoma, greater than 100 µM.
As to `O=C1NC(=S)S/C1=C/c1ccc2c(c1)OCO2`, the GI50 with EKVX NSCLC was 88.4 µM; in the test with HS 578T breast, 36.8 µM; in the test on M14 melanoma it was greater than 100 µM; with NCI/ADR-RES ovarian, greater than 100 µM; in the test on OVCAR-5 ovarian, greater than 100 µM; in the test on OVCAR-8 ovarian, greater than 100 µM. Further, the GI50 in the test with RXF 393 renal, with SR leukemia, with SW-620 colon and in the test on UACC-257 melanoma was greater than 100 µM throughout. The TGI with EKVX NSCLC, in the test on HS 578T breast, in the test with M14 melanoma, in the test with NCI/ADR-RES ovarian, in the test with OVCAR-5 ovarian and in the test on OVCAR-8 ovarian was greater than 100 µM throughout. Further, the TGI in the test on RXF 393 renal, in the test with SR leukemia, in the test on SW-620 colon and in the test with UACC-257 melanoma was greater than 100 µM each time.
As for `CC/C=C\C[C@H]1CC=C2C(=O)C=C[C@@H]2CC=CCCCC(=O)O[C@@H](CCCCC)CC=C2C(=O)C=C[C@@H]2CC=CCCCC(=O)O[C@@H](CCCCC)CC=C2C(=O)C=C[C@@H]2CC=CCCCC(=O)O[C@@H](CCCCC)CC=C2C(=O)C=C[C@@H]2CC=CCCCC(=O)O1`, the GI50 is 2.41 µM with EKVX NSCLC; 2.68 µM in the test with HS 578T breast; 2.09 µM in the test with M14 melanoma; greater than 7.9 µM in the test with NCI/ADR-RES ovarian; 4.02 µM with OVCAR-5 ovarian; 2.29 µM in the test on OVCAR-8 ovarian. For the same compound, the GI50 in the test with RXF 393 renal is 1.37 µM; with SR leukemia it was 1.58 µM; with SW-620 colon, 2.54 µM; with UACC-257 melanoma, 2.95 µM. Besides, the TGI in the test on EKVX NSCLC was greater than 7.9 µM; in the test on HS 578T breast, greater than 7.9 µM; with M14 melanoma, 7.46 µM; in the test with NCI/ADR-RES ovarian, greater than 7.9 µM; in the test with OVCAR-5 ovarian, greater than 7.9 µM; in the test on OVCAR-8 ovarian it was greater than 7.9 µM. Moreover, the TGI was 2.87 µM in the test on RXF 393 renal, greater than 7.9 µM in the test on SR leukemia, greater than 7.9 µM in the test on SW-620 colon and greater than 7.9 µM in the test on UACC-257 melanoma.
